Laboratory results from patent US12145987B2, “Method for depleting cytotoxic T cells using an anti-LAG-3 antibody composition” (Daiichi Sankyo Company, Limited, priority 2017, dated 2024).

What was measured:
Format in all cases: cell-based
T cells (total number) = assay: Total T cell number after CD3/CD28 stimulation of human PBMCs for 4 days, flow cytometry; details: hLA212_H4/L2 10 μg/mL, tacrolimus 10 nM, dexamethasone 1 μM, PBMCs of two donors
Experimental: (§1) PBMCs were separated from human peripheral blood by Ficoll centrifugation and added to a 96-well U-bottom microplate in an amount of 4×10^5 cells/well. Human IL-2 (PeproTech, Inc., final concentration: 100 ng/mL) and Dynabeads Human T-Activator CD3/CD28 (Life Technologies Corp., 4×105 beads/well) were added thereto, and T cells were activated by culture for 4 days. The obtained cells were recovered, suspended in a FACS buffer (PBS, 0.1% BSA, and 0.1% sodium azide), and then reacted with Human BD Fc Block (Becton, Dickinson and Company) at room temperature for 10 minutes. Subsequently, the cell surface was stained by reaction at 4° C. for 30 minutes with fluorescently labeled antibodies diluted with a FACS buffer containing a LIVE/DEAD Fixable Dead Cell Stain Kit-near-IR fluorescent reactive dye (manufactured by Invitrogen Corp.), followed by washing with a FACS buffer. […] The data was analyzed using FlowJo (manufactured by Tree Star Inc). After removal of the LIVE/DEAD Fixable Dead Cell Stain Kit-near-IR fluorescent reactive dye-positive dead cells by gating, only the living cells were analyzed by further gating CD3 positive and CD8 positive CD8 T cells. […]

[1] = tested on: perforin positive CD8 T cells; assay: Perforin positive CD8 T cell number after CD3/CD28 stimulation of human PBMCs for 4 days, flow cytometry; details: hLA212_H4/L2 10 μg/mL, tacrolimus 10 nM, PBMCs of two donors
Experimental: as §1

CD28 negative T cells = assay: CD28 negative T cell number after CD3/CD28 stimulation of human PBMCs for 4 days, flow cytometry; details: tacrolimus 10 nM, dexamethasone 1 μM, two donors
Experimental: (§2) PBMCs were separated from human peripheral blood by Ficoll centrifugation and added to a 96-well U-bottom microplate in an amount of 4×10^5 cells/well. Human IL-2 (PeproTech, Inc., final concentration: 100 ng/mL) and Dynabeads Human T-Activator CD3/CD28 (Life Technologies Corp., 4×105 beads/well) were added thereto, and T cells were activated by culture for 4 days. The obtained cells were recovered, suspended in a FACS buffer (PBS, 0.1% BSA, and 0.1% sodium azide), and then reacted with Human BD Fc Block (Becton, Dickinson and Company) at room temperature for 10 minutes. […] The data was analyzed using FlowJo (manufactured by Tree Star Inc). After removal of the LIVE/DEAD Fixable Dead Cell Stain Kit-near-IR fluorescent reactive dye-positive dead cells by gating, only the living cells were analyzed by further gating CD3 positive and CD8 positive CD8 T cells.
(§3) The effect of the humanized anti-human LAG-3 antibody hLA212_H4/L2, the calcineurin inhibitor tacrolimus, and the corticosteroid dexamethasone on CD28 negative T cells and CD57 positive T cells was investigated in the assay system of Example 13. […] Out of the living cells, a CD3 positive and CD8 negative fraction and a CD3 positive and CD8 positive fraction were analyzed as CD4 T cells and CD8 T cells, respectively.

CD57 positive T cells = assay: CD57 positive T cell number after CD3/CD28 stimulation of human PBMCs for 4 days, flow cytometry; details: tacrolimus 10 nM, dexamethasone 1 μM, two donors
Experimental: as §2, §3

[2] = hLA212_H4/L2 10, 1, 0.1 μg/mL (effect concentration dependent)

C=CC[C@@H]1/C=C(\C)C[C@H](C)C[C@H](OC)[C@H]2O[C@@](O)(C(=O)C(=O)N3CCCC[C@H]3C(=O)O[C@H](/C(C)=C/[C@@H]3CC[C@@H](O)[C@H](OC)C3)[C@H](C)[C@@H](O)CC1=O)[C@H](C)C[C@@H]2OC [tacrolimus, reference compound]
total number of T cells after culture, compared with the control (T cells (total number)): slightly reduced
number of perforin positive CD8 T cells, compared with the control [1]: rarely different from those of the control
number of CD28 negative CD8 T cells (CD28 negative T cells; [2]): evident reduction in the number of CD28 negative CD8 T cells as found for the LAG-3 antibody was not observed
number of CD28 negative CD4 T cells (CD28 negative T cells; hLA212_H4/L2 10, 1, 0.1 μg/mL): hardly effective or rather increased the cell number
number of CD57 positive CD8 T cells (CD57 positive T cells; [2]): evident reduction in the number of CD57 positive CD8 T cells as found for the LAG-3 antibody was not observed
number of CD57 positive CD4 T cells (CD57 positive T cells; hLA212_H4/L2 10, 1, 0.1 μg/mL): such an effect was hardly observed
